Test results as given in PubChem BioAssay (NCI).
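96-well plates; 48 h exposure; 5 concentrations. Endpoints by linear interpolation between flanking doses. Not reached: highest tested concentration assigned. At the GI50, growth is halved. TGI marks complete inhibition of growth.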

What was measured:
Test in all cases: NCI tumour cell line growth inhibition, 48 h
SR leukemia = system: SR leukemia
HT29 colon = system: HT29 colon
MOLT-4 leukemia = system: MOLT-4 leukemia
RXF 393 renal = system: RXF 393 renal
SK-MEL-28 melanoma = system: SK-MEL-28 melanoma
TK-10 renal = system: TK-10 renal
NCI-H460 lung = system: NCI-H460 lung
KM12 colon = system: KM12 colon
DU-145 prostate = system: DU-145 prostate
A498 renal = system: A498 renal

Row | SMILES | TGI (SR leukemia) [µM] | TGI (HT29 colon) [µM] | TGI (MOLT-4 leukemia) [µM] | TGI (RXF 393 renal) [µM] | TGI (SK-MEL-28 melanoma) [µM] | TGI (TK-10 renal) [µM] | TGI (NCI-H460 lung) [µM] | TGI (KM12 colon) [µM] | GI50 (SR leukemia) [µM] | GI50 (HT29 colon) [µM] | GI50 (MOLT-4 leukemia) [µM] | GI50 (DU-145 prostate) [µM] | TGI (DU-145 prostate) [µM] | GI50 (A498 renal) [µM] | TGI (A498 renal) [µM] | GI50 (SK-MEL-28 melanoma) [µM] | GI50 (TK-10 renal) [µM] | GI50 (NCI-H460 lung) [µM] | GI50 (KM12 colon) [µM] | GI50 (RXF 393 renal) [µM]
1 | S=c1sc2c(n1-c1ccccc1)NC=NC2S (centres undefined) | > 100 | > 100 | > 100 | > 100 | > 100 | > 100 | > 100 | > 100 | – | – | – | – | – | – | – | – | – | – | – | –
2 | COc1ccc(C2[C@@H](c3ccccc3)C(=O)N2c2cc(OC)c(OC)c(OC)c2)cc1F (some centres undefined) | > 100 | 0.0781 | > 100 | – | > 100 | > 100 | > 100 | > 100 | 0.0373 | 0.026 | 0.0381 | 0.0354 | > 100 | 0.027 | 0.0861 | 1.37 | 1.68 | 0.0344 | 0.0331 | –
3 | N#C/C(=C\c1cccc(Cl)c1Cl)c1ccccc1 | > 80.9 | > 100 | > 100 | > 79.2 | > 100 | 91.6 | > 100 | > 100 | – | – | – | – | – | – | 89.6 | – | – | – | – | –
4 | CC(C)(C)c1cc2c(O)c3cccc4c(=O)c5cccc6c5-c(c34)c2c(c1)c6=O | 30.4 | > 100 | > 100 | 97.8 | – | > 100 | > 100 | > 100 | – | – | – | – | – | – | > 100 | – | – | – | – | –
5 | Cc1cccc(C)c1NC(=O)CCCC(=O)C1/C(=N/NC(=O)CC#N)CCC/C1=N\NC(=O)CC#N (centres undefined) | > 100 | > 100 | > 100 | – | > 100 | > 100 | > 100 | > 100 | – | – | – | – | – | – | > 100 | – | – | – | – | –
6 | O=C(/C=C/c1ccc([N+](=O)[O-])cc1)c1ccc(NCc2nc3ccccc3[nH]2)cc1 | 8.15 | 12.3 | 10.2 | – | 28 | 19.9 | 5.64 | 3.47 | – | – | – | – | – | – | 24.1 | – | – | – | – | –
7 | Nc1n[nH]c2cccc(C#Cc3cccc(C(=O)Nc4ccc(CN5CCOCC5)c(C(F)(F)F)c4)c3)c12 | > 100 | 12.2 | 4.24 | 3.44 | 7.08 | 12.9 | 10.3 | 9.65 | 1.97 | 1.89 | 1.4 | 3.93 | 13.3 | – | – | 1.88 | 4.22 | 3.2 | 2.81 | 1.53
8 | C=CC[C@H](C[C@H](C[C@H](C[C@H](C[C@H](C[C@H](C[C@H](C[C@H](C[C@H](C[C@H](CCCCC)OC)OC)OC)OC)OC)OC)OC)OC)OC)OC | > 100 | > 100 | > 100 | > 100 | > 100 | > 100 | > 100 | > 100 | – | – | – | – | – | – | > 100 | – | – | – | – | –
9 | C/C(=N/Nc1ccc([N+](=O)[O-])cc1[N+](=O)[O-])C(CC(C(=O)NCc1ccccc1)/C(C)=N\Nc1ccc([N+](=O)[O-])cc1[N+](=O)[O-])C(=O)NCc1ccccc1 (centres undefined) | 35.7 | 18.5 | – | 15 | 22.4 | – | 17.5 | 15 | – | – | – | – | – | – | 30.5 | – | – | – | – | –
10 | C=C1C(=O)O[C@H]2[C@H]1CC/C(COC(=O)NCc1ccc(Cn3c(=O)sn(-c4ccc(OC)cc4)c3=O)cc1)=C\CC[C@@]1(C)O[C@@H]21 | 5.2 | 3.51 | 5.95 | – | 4.1 | 3.49 | 13.5 | 14 | 0.535 | 1.96 | 1.93 | 1.81 | 3.21 | 5.65 | 17.8 | 1.97 | 1.91 | 3.7 | 3.75 | –
11 | CCC(=C/[C@H](C)C/C=C/C(C)=C/[C@@H](C)C(=O)[C@@H](C)[C@H](O)[C@@H](C)CC)/C=C/[C@H]1OC(=O)C=C[C@@H]1C | – | 1.15 | 0.114 | – | 1.26 | 1.03 | 1.88 | 1.15 | < 0.01 | < 0.01 | < 0.01 | < 0.01 | 4.56 | < 0.01 | < 0.01 | < 0.01 | < 0.01 | < 0.01 | < 0.01 | –
12 | COC(=O)CC(c1ccccc1)C1(c2ccccc2)SCCS1 (centres undefined) | > 290 | > 290 | > 290 | > 290 | > 290 | > 290 | > 290 | > 290 | – | – | – | – | – | – | – | – | – | – | – | –
13 | O=C1C=CC(=O)c2nc3c(cc21)CCC3 | 27 | > 100 | 33.7 | 34.2 | 40.4 | 32.7 | > 100 | > 100 | – | – | – | – | – | – | – | – | – | – | – | –
14 | CCOC(=O)C1=C(C(=O)OCC)C2c3ccccc3C=CN2C(C(=O)OCC)=C(SC)S1 (centres undefined) | > 100 | > 100 | > 100 | > 100 | > 100 | > 100 | > 100 | – | – | – | – | – | – | – | – | – | – | – | – | –
15 | COc1cccc(-c2nc(-c3ccc(NC(=O)OC(C)C)cc3)[nH]c2-c2ccnc(Br)c2)c1 | – | > 100 | 56 | 0.87 | > 100 | > 100 | > 100 | > 100 | – | 2.37 | 1.64 | 3.33 | > 100 | 1.2 | 6.29 | 2.55 | 3.61 | 2.99 | 2.41 | 0.282
16 | O=C(Oc1ccc(Cl)cc1)c1ccccc1Nc1ccnc(C(F)(F)F)c1 | > 100 | – | > 100 | – | – | 48.9 | 35.4 | 23.1 | 3.79 | – | > 100 | 18.7 | 39.8 | – | – | – | 17.9 | 10.5 | 8.94 | –
17 | Cc1cc2c(C)[nH]nc2c(C(=O)O)c1C | > 100 | > 100 | > 100 | > 100 | > 100 | – | > 100 | > 100 | – | – | – | – | – | – | > 100 | – | – | – | – | –
18 | COc1cc(-c2ccc3cc(OC)c(OC)c(OC)c3c2)cc(OC)c1OC | > 100 | – | > 100 | 44 | > 100 | 84.3 | – | > 100 | 5.19 | – | > 100 | > 100 | > 100 | 11.1 | 91.8 | > 100 | 27.9 | – | 5.93 | 5.91
19 | O=S(=O)(N/N=C/c1cccc(/C=N/NS(=O)(=O)c2ccccc2)c1)c1ccccc1 | > 100 | > 100 | > 100 | > 100 | > 100 | > 100 | > 100 | > 100 | – | – | – | – | – | – | > 100 | – | – | – | – | –
20 | Cc1nnc(NC(=O)c2nc(S(=O)(=O)Cc3ccc(F)cc3)ncc2Cl)s1 | 3.55 | 5.8 | 4.38 | 3.51 | 3.26 | – | 35.1 | 37 | 1.44 | 2.34 | 2.02 | 9.44 | 21.7 | 13.1 | 26.4 | 1.73 | – | 17.4 | 18.5 | 1.85
21 | CCOC(=S)SCC(=O)O | > 100 | > 100 | > 100 | > 100 | > 100 | > 100 | > 100 | > 100 | – | – | – | – | – | – | > 100 | – | – | – | – | –
22 | Cc1ccc(-n2c3nc(=O)[nH]c(=O)c-3cc3cc([N+](=O)[O-])ccc32)cc1 | – | 37.2 | > 100 | > 100 | 42.2 | 64.5 | > 100 | 16.1 | – | 12 | 6.61 | 22.9 | 55.1 | 20.5 | 45.2 | 15.7 | 29.3 | 17.1 | 3.79 | 49.9
23 | CC(C)=CCC(O)C1=CC(=O)c2c(O)ccc(O)c2C1=O (centres undefined) | – | 5.17 | 0.135 | 2.11 | 2.86 | 3.04 | 7.78 | 16.9 | – | – | – | – | 2.5 | – | 4.08 | – | – | – | – | –
24 | CC(=O)OCCOCNC(=S)N/N=C(\C)c1cnccn1 | > 100 | > 100 | > 100 | > 100 | > 100 | > 100 | > 100 | > 100 | – | – | – | – | – | – | > 100 | – | – | – | – | –
25 | O=C1CCCCN1c1ccccc1C#C/C=C\C#Cc1ccccc1C(F)(F)F | – | 2.63 | 6.96 | 2.73 | 3.36 | 30.8 | > 50 | 11.4 | – | 0.97 | 1.59 | 1.68 | 8.5 | 2.25 | 28.4 | 1.09 | 3.35 | 2.16 | 1.8 | 0.526
26 | Cc1ccc(/C=C/C(=O)c2cccc3ccccc23)cc1 | 78.2 | 43.4 | 67.6 | 26.2 | 35.4 | 28.5 | 30.7 | 27.9 | – | – | – | – | – | – | 27.4 | – | – | – | – | –
